In PMC5632533, “Mechanisms of action and in vivo antibacterial efficacy assessment of five novel hybrid peptides derived from Indolicidin and Ranalexin against Streptococcus pneumoniae” (PeerJ, 2017):

Tested on: S. pneumoniae (highly virulent strain)
Test: In vivo antipneumococcal activity, pneumococcal bacteremia (lethal systemic infection) model
Set-up: species or system mice
Details: for survival of infected mice up to seven days post-infection: 1.5 × 10^2 CFU/mouse IP, 10 mice; for survival of infected mice, treatment via SC and IN routes: up to seven days post-infection
Method: Two pneumococcal infection models developed previously in our lab ([Le et al., 2015]) were used to assess the therapeutic efficacy of peptides in vivo. The systemic infection model was used to mimic pneumococcal bacteremia in humans and the pneumococcal pneumonia model was used to mimic pneumococcal pneumonia in humans. A highly virulent strain was used in both the models. The bacterial isolate was grown overnight on Columbia agar with 5% sheep blood at 37 °C under 5% CO2. The bacterial suspension was adjusted to OD625 0.08-0.1 (1 ∼ 2 × 10^8 CFU/ml). Mice tested for lethal systemic infection were inoculated with 1.5 × 10^2 CFU/mouse (100 μl) via IP route. Mice used to assess the Pneumococcal pneumonia model were inoculated with pneumococcal cells of 5 × 10^3 CFU/mouse (50 μl) via the intrathoracic route.
After 1 hr of inoculation, Mice receiving treatment were randomized and divided into six groups. RN7-IN10 and RN7-IN8 were tested at three different doses for each (5 mg/kg, 10 mg/kg and 20 mg/kg) using a group of 10 mice. Graded doses of ceftriaxone (5 mg/kg, 10 mg/kg, […], 40 mg/kg and 80 mg/kg) were also tested to assess the in vivo antibacterial activity of this antibiotic. Only mice injected with PBS were served as uninfected control. Mice injected with bacterial inoculum were used as untreated control group and given sterile distilled water only. Survival of mice was documented for seven days or until death. After seven days, the experiment was ended, the blood and homogenates of the five major organs (kidney, brain, spleen, liver and lung) of the surviving mice were plated on Columbia agar with 5% sheep blood, to detect the presence of pneumococcal cells. […]

[1] = treatment IP 5 mg/kg (peptides at 1 h, 12 h, 24 h post-infection)
[2] = treatment IP 10 mg/kg (peptides at 1 h, 12 h, 24 h post-infection)
[3] = treatment IP 20 mg/kg (peptides at 1 h, 12 h, 24 h post-infection)

Substance	survival of infected mice up to seven days post-infection [1]	survival of infected mice up to seven days post-infection [2]	survival of infected mice up to seven days post-infection [3]	survival of infected mice, treatment via SC and IN routes
FLGGLIKWKWPWWPWRR-NH2 [RN7-IN10, hybrid peptide of ranalexin (residues 1-7) and indolicidin (residues 4-13)]	failed to treat any of the infected mice	10%	30%	none of the mice survived
FLGGLIKWPWWPWRR-NH2 [RN7-IN8, hybrid peptide of ranalexin (residues 1-7) and indolicidin (residues 6-13)]	failed to treat any of the infected mice	30%	50%	none of the mice survived
